In ChEMBL document CHEMBL3886288, “Thieno[3,2-D]pyrimidine derivatives having inhibitory activity for protein kinases” (2015):

Legend:
[1] = biological target: Serine/threonine-protein kinase B-raf (Homo sapiens, UniProt P15056, V600E); experiment: (§1) Kinase Activity: The compounds prepared in Examples were tested for inhibitory activity against three subtypes of RAF, i.e., RAF1 Y340D Y341D (C-RAF), B-RAF normal type and B-RAF^V600E using Kinase Profiling Service (Invitrogen, U.S.) according to the manufacturer's instructions. The levels of enzymatic inhibition of the compounds were calculated as percent inhibition at various concentrations.
[2] = biological target: Serine/threonine-protein kinase B-raf (Homo sapiens, UniProt P15056); experiment: as §1
[3] = biological target: RAF proto-oncogene serine/threonine-protein kinase (Homo sapiens, UniProt P04049, Y340D/Y341D); experiment: as §1
[4] = biological target: Macrophage colony-stimulating factor 1 receptor (Homo sapiens, UniProt P07333); experiment: Kinase Activity: The compounds prepared in Examples were tested for inhibitory activity against FMS, DDR1 and DDR2 kinases using Kinase Screening and Profiling Service (Invitrogen, U.S.).
Sequence of Macrophage colony-stimulating factor 1 receptor (P07333 whole entry): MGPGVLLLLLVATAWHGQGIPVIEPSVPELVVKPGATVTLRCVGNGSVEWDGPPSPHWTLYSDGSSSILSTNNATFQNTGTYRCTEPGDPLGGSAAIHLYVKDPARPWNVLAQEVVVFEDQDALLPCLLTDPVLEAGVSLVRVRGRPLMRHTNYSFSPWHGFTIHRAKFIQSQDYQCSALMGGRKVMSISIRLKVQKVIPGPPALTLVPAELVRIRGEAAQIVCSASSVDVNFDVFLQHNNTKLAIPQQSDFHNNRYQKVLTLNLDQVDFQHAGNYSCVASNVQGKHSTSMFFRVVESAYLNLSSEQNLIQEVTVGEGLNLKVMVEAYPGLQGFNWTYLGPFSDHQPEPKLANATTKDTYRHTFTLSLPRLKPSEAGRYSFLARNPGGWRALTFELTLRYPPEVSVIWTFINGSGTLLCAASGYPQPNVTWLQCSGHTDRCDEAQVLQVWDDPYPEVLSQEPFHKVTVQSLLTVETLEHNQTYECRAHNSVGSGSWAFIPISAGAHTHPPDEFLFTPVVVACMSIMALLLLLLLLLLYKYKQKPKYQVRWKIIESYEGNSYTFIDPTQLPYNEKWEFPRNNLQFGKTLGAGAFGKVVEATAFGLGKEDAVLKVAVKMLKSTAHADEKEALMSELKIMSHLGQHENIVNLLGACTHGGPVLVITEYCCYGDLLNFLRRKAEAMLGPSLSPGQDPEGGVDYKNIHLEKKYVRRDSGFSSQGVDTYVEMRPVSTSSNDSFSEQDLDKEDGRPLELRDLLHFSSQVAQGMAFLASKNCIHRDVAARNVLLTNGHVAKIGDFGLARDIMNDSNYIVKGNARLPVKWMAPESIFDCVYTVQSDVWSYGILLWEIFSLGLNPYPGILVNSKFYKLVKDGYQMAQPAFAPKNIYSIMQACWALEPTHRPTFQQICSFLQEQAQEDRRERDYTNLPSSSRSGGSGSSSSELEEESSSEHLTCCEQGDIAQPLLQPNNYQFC

Sequence of RAF proto-oncogene serine/threonine-protein kinase (P04049 whole entry Y340D/Y341D): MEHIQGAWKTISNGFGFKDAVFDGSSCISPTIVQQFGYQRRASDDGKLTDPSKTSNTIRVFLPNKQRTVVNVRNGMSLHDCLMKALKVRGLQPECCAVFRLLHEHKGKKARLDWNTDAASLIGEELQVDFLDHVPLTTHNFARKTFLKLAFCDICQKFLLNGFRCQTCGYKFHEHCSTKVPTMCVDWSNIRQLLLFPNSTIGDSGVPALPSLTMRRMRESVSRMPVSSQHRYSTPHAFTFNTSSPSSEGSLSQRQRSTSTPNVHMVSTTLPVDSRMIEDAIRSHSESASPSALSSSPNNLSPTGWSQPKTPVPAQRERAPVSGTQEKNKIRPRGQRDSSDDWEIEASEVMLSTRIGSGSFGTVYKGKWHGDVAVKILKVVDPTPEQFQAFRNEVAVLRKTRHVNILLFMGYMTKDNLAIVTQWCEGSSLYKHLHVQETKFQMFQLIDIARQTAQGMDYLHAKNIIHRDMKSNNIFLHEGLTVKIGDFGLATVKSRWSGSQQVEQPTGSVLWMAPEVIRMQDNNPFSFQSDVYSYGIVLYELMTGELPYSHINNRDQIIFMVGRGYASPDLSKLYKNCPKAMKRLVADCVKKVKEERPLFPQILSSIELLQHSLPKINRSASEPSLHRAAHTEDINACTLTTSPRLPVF
Sequence of Serine/threonine-protein kinase B-raf (Homo sapiens, UniProt P15056) (P15056 whole entry): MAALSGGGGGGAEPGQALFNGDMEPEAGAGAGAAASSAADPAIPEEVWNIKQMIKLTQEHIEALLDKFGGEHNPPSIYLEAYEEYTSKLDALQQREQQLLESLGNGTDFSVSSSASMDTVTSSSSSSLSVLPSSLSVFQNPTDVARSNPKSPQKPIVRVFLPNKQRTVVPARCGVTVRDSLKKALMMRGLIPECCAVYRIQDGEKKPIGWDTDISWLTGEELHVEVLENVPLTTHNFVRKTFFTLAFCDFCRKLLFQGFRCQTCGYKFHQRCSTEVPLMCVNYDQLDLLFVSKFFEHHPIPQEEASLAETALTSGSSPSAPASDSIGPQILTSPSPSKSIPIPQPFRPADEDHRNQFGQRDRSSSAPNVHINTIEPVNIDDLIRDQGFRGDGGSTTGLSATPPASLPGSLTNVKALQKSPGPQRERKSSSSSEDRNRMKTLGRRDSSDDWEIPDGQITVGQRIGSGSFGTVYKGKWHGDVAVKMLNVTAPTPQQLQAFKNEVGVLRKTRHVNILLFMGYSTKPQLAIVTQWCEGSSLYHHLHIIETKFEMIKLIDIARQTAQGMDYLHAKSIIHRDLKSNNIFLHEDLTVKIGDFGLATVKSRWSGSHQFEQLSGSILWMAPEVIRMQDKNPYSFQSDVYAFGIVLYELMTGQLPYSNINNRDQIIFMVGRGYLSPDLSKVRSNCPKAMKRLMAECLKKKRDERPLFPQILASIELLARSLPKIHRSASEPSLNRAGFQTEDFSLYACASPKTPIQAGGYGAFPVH
Sequence of Serine/threonine-protein kinase B-raf (Homo sapiens, UniProt P15056, V600E) (P15056 2-766 V600E limits assumed): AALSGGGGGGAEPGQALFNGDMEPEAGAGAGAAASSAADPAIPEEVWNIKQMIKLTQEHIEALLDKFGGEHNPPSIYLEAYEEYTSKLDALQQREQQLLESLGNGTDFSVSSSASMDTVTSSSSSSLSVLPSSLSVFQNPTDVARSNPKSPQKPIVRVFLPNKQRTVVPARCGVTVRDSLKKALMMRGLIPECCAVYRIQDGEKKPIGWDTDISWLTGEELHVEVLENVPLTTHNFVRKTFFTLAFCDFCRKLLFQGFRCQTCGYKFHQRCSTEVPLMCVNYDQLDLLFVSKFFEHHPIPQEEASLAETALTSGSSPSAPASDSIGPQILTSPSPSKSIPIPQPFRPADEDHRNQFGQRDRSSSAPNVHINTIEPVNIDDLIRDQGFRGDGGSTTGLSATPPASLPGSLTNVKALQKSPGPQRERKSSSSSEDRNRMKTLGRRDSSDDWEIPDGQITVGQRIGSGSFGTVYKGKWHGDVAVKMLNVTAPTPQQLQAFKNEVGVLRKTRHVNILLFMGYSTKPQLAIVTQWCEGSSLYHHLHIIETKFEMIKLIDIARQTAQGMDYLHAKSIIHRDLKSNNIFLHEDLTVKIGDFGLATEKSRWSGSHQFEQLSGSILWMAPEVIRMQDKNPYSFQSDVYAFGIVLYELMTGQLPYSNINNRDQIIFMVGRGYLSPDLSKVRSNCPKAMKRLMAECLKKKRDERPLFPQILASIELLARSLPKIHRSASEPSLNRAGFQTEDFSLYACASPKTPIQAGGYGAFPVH

Compound `Cc1ccc2c(Nc3cccc(Cl)c3)nccc2c1NC(=O)c1csc2c(N)ncnc12` has an IC50 [1] of 9 nM, an IC50 [2] of 66 nM and an IC50 [3] of 5 nM. For the same compound, the IC50 [4] was 57 nM.
